According to US20220323472A1, “ANTI-PARASITIC COMPOUNDS FOR THE TREATMENT AND PREVENTION OF VIRAL DISEASES” (priority 2021, published 2022):

Test system: Demodex mites
Assay: in vitro Demodex survival time assay (LT50)
Procedure: FIG. 4 summarizes the activity of 10% chloroquine in water relative to a water control on activity against Demodex mites in an in vitro assay, with an LT5o of 31.6 hours for chloroquine compared to 44.8 hours for the water control, illustrating the inactivation effect of chloroquine on Demodex.
Accordingly, chloroquine and ivermectin may be used to treat SAR-CoV-2 by reducing the microbial load or Demodex population of a patient suffering from viral infection.
In vitro efficacy and mite lifetimes: Relative efficacy of various formulations are evaluated with a demodex survival time experiments. FIG. 3 tabulates demodex survival time, expressed in terms of LT50 (time at which 50% of demodex mites are killed) and/or average minutes to death for various active agents.

Which “LT50 (time at which 50% of demodex mites are killed)” value (10% chloroquine in water, in vitro assay, water control 44.8 hours) does the source give for `CCN(CC)CCCC(C)Nc1ccnc2cc(Cl)ccc12` (centres unmarked) [chloroquine] here?
Its value is 31.6 h.

And the “ex-vivo activity against Demodex mites” value (in vitro assay (FIGS. 3 and 4))?
The value was “some ex-vivo activity”.
